# From publication PMC7867085, “In Vitro and In Vivo Antitumor Activity of Indolo[2,3-b] Quinolines, Natural Product Analogs from Neocryptolepine Alkaloid” (Molecules, 2021)
# Assays:
# EAC-induced solid tumor = assay: Antitumor activity: reduction in tumor volume of EAC-induced solid tumor; type: in vivo, Swiss female albino mice; conditions: day 12 (last day of treatment), 100 mg/kg SC daily for five consecutive days
# Procedure: The aim of this study is to characterize indoloquinoline analogs 6a–d curative ability and antineoplastic activity on solid-form of Ehrlich tumors. Tumor volume is a potential biomarker for Ehrlich tumor development. The induction of solid tumor in Swiss female mice performed by inserting 0.2 mL of EAC cells (2 × 10^6 cell/mL) subcutaneously (SC) between thighs of the lower limb. When the tumor volume reached 15–20 mm^3 (Seven days after tumor induction), the mice were randomly divided into 6 groups (n = 10), five groups were injected subcutaneously with thalidomide and indoloquinoline analogs 6a–d (100 mg/kg) daily for five consecutive days, the sixth group (positive control group) were given DMSO/saline (0.3/0.7). The 8th day is considered the zero days of treatment. The tumor volume was daily measured with a vernier caliper for four days stated from day eight.
# Thalidomide and indoloquinoline derivatives 6a–d were tested for their antitumor effect; the test was done in vivo on mice-bearing solid tumors. The induction of solid tumor in Swiss female mice performed by inserting 0.2 mL of EAC cells (2 × 10^6 cell/mL) subcutaneously (SC) between thighs of the lower limb. Seven days after tumor induction, animals were divided into 6 groups (n = 10), five groups were injected subcutaneously with 100 mg/kg of tested compounds daily for 5 consecutive days, the sixth group (positive control group) were given 0.3 DMSO/0.7 H2O. On day twelve, after carrying out EAC cells, mice were sacrificed, dissected, and change in tumor mass was evaluated by measuring the developed tumor mass volume using the formula [45, 46]:Tumor volume (mm^3) = 0.52 × length × (width)^2.(1)
# [1] = test system: solid-tumor (EAC) bearing mice (liver homogenate); assay: Lipid peroxidation and antioxidant enzymes in liver homogenate of solid-tumor bearing mice; type: in vivo, Swiss female albino mice; conditions: 100 mg/kg for 5 days; for CAT / Lipid Peroxidation / SOD: liver
# Procedure: Measuring antioxidant enzyme levels and lipid peroxidation was utilized to evaluate the pharmacological effect of indoloquinoline derivatives. The study group was divided into two subgroups, normal mice and tumor-bearing mice. Each subgroup is further subdivided into two groups, one group received indoloquinoline derivatives, and the other group was marked as a placebo group.
# After administration of indoloquinoline analogs 6a, 6b, 6c and 6d at a dose of 100 mg/kg for 5 constitutive days to mice with EAC, the levels of lipid peroxidation were highly significant less than that of the positive control group (p < 0.001). Meanwhile, the level of SOD in the liver homogenate of positive bearing mice was 32.1% (p < 0.001) less than that of the normal group (Table 5).
# The eradicated liver was double washed first, with ice-cold normal saline then, with cold 0.15 mol/L Tris-HCl buffer (pH 7.4). The clean organ was dried and weighed, and used to prepare a 10% w/v homogenate in 0.15 mol/L Tris-HCl buffer. A portion of the prepared homogenate was centrifuged at 1500 rpm for 15 min at 4 °C [47] and used for estimating lipid peroxidation, SOD [48] and CAT [49] analysis was carried out using the supernatant.
# [2] = test system: splenic lymphocytes of EAC bearing mice; assay: Splenic lymphocyte count in EAC bearing mice; type: in vivo, Swiss female albino mice; conditions: 100 mg/kg SC for 5 days
# Procedure: This reduction is reconfirming the reported fact that tumor causes massive depletion in immune cell numbers. Table 7 shown the reduced splenic lymphocyte results were a reaffirmation that cancer disabled normal lymphocyte development. The effective dose of indoloquinoline analogs, given throughout this study; 100 mg/kg for 5 constitutive days subcutaneously, reported an increase in the spleen cell number providing evidence that they protect the lymphoid organ of mice with tumor as illustrated in (Table 7).
# Under sterile conditions, the spleens were eliminated, and the single cell suspension was made in RPMI 1640 medium. Splenic lymphocytes were purified as described earlier. Viable splenic lymphocytes were counted in a hemocytometer by trypan blue exclusion test and used for further analysis.
# During the study, female Swiss albino mice (normal, treated, and untreated) were anesthetized. Under sterile conditions, after scattering 70% alcohol on the abdominal region, the spleen was removed and then injected with a minor amount of PBS. Spleen was pressed across the fine mesh of the tissue grinder. After centrifuging the produced cell suspension at 1000 rpm for 5 min, the supernatant was discarded, and the cells were washed at room temperature by centrifugation in PBS twice. Trypan blue extrusion method was used to evaluate cell viability, and a phase-contrast microscope was used for cell counting. The experiment was done in tripartite.
# liver = assay: Histopathological examination of liver sections (H and E); type: in vivo; conditions: for liver degenerative changes (histopathology): mice treated with compound, Figure 5
# Source text: It is well known that the vital organ enables the human body to get rid of toxins, as organic xenobiotics in the liver. Tissue changes in the liver are linked with histological abnormalities. Possible unwanted effects of the Indoloquinolines were checked in the mice group that received the compound; 5 days after subcutaneous injection of the compounds, tumors and livers were fixed in 10% neutral buffered formalin solution and embedded in paraffin. Sections, […], were stained using hematoxylin and eosin (H and E).
# Each tumor or liver sample for each mouse was separated and kept in 10% formalin solution and dehydrated in a graded alcohol series. Each specimen was treated with xylene and then inserted in paraffin blocks. The specimen was cut into sections, the thickness of each section is five-micron, hematoxylin, and eosin (H and E) were added for staining. The stained liver specimen was used to assess the degree of degradation and necrosis using a reported scaling system; the scaling system use numbers from 0 to 3 to reflect necrosis severity. Starting from 0, which indicates no necrosis and moves to mild, moderate, and severe necrosis indicated by 1, 2, and 3, respectively. Mild and moderate stages are defined as focal and multifocal necrosis or degradation of hepatocytes, respectively, while severe is characterized by local immense, spread out necrosis or damaged liver cells. Tumor specimen stained with H and E were used to evaluate the severity and percentage of necrosis by the same previously mentioned scaling system.
# [3] = 5 days after subcutaneous injection, H and E
Molecule,reduction percentage in tumor volume (EAC-induced solid tumor) [%],increase of CAT level against positive control [1] [%],increase of SOD level in relation to positive control group [1] [%],CAT [1] [KU/mg Tissue/s],Lipid Peroxidation [1] [nmol MDA/g Tissue],SOD [1] [U/g Tissue],Splenic Lymphocyte Number [2],increase in lymphocytic count [2] [%],necrosis of liver cells (liver; [3]),liver degenerative changes (histopathology) (liver; H and E),"necrosis of liver cells (liver; mouse, in vivo, sc)"
"Cn1c2nc3ccccc3c-2c(Nc2ccc(Br)cc2F)c2ccccc21 [Compound 6a, N-(4-Bromo-2-fluorophenyl)-5-methyl-5H-indolo[2,3-b] Quinolin-11-amine]",90.58,51.2,54.4,6.2 ± 0.14,249.3 ± 2.1,146.75 ± 2.11,20.0 ± 0.73 * 10^6/mL,440.5,did not cause necrosis to liver cells,mild degenerative changes,–
"5-Methyl-N-(4-methylpiperazin-1-yl)-5H-indolo[2,3-b] Quinolin-11-amine [Compound 6d]",94.90,65.8,39.8,6.8 ± 0.12,249.9 ± 2.2,132.86 ± 0.55,17.0 ± 0.61 * 10^6/mL,359.5,–,–,did not cause necrosis to liver cells
"Cn1c2nc3ccccc3c-2c(NCCc2c[nH]c3ccccc23)c2ccccc21 [Compound 6b, N-(2-(1H-Indol-3-yl)ethyl)-5-methyl-5H-indolo[2,3-b] Quinolin-11-amine]",87.37,78.04,53.69,7.3 ± 0.16,268.9 ± 2.8,146.06 ± 3.11,14.8 ± 1.22 * 10^6/mL,300,did not cause necrosis to liver cells,"mild diffuse degenerative changes, mild congestion, and scattered lymphocytes",–
"5(5-Methyl-5H-indolo[2,3-b] quinolin-11-ylamino) Pyrimidine-2,4(1H,3H)-dione [Compound 6c]",93.29,107.3,36.24,8.5 ± 0.34,262.1 ± 1.9,129.47 ± 1.38,17.0 ± 0.58 * 10^6/mL,359.5,–,–,did not cause necrosis to liver cells
